Assays:
[1] = tested on: AMV DNA polymerase; assay: Metal requirements for catalysis by AMV DNA polymerase; format: biochemical, avian myeloblastosis virus; conditions: poly (A).oligo (dT)
Method: (§1) All known DNA polymerases require either Mg^2+ or Mn^2+ as an added divalent cation for activity. AMV DNA polymerase used Mg^2+ as an added divalent cation and the maximum rate of polymerization with poly (A).oligo (dT) was attained at 5 mM Mg^2+. […] Thymidine monophosphate incorporation with Be^2+ was less than 0.3% of that obtained with 5 mM Mg^2+.

[2] = tested on: AMV DNA polymerase; assay: Fidelity of in vitro DNA synthesis (error frequency) with AMV DNA polymerase copying synthetic polynucleotide templates; conditions: for Class: Table 1, classes 1-3 not defined
From the text: In this invention, the ability of carcinogens to decrease the fidelity of in vitro DNA synthesis will be used to screen for carcinogenic or mutagenic agents. The system uses synthetic polynucleotides of defined composition which may be copied in the test tubes with procaryotic, eucaryotic or viral DNA polymerases. The use of synthetic polynucleotides of defined composition allows the measurement of the simultaneous incorporation of the correct, complementary nucleotide and an incorrect, non-complementary nucleotide. The correct nucleotide is labeled with [α-^32 P] of low specific activity and the incorrect nucleotide is labeled with [^3 H] of high specific activity. Through this double labeled reaction it is possible to determine the simultaneous incorporation of both nucleotides and thus to determine an error frequency. The error frequency may be defined as the ratio of the incorrect/correct nucleotide incorporation. Agents which increase this error frequency may be scored as positive. […] Agents which score positive would be checked using different templates to underscore the positive results. In this system different polymerases will be used as well as different templates. One would expect that most carcinogens would change the fidelity of DNA synthesis with different polymerases as well as with different templates though this need not be the case.
Each assay will consist of a polymerase, a polynucleotide template that only contains one or two nucleotides, a complementary nucleotide and a non-complementary nucleotide as well as magnesium. Both of the nucleotides will be labeled by radioactive precursors and the ratio between the two is to be used for a measure of error frequency in the system. In instances where a template requires two complementary nucleotides, only one will be radioactively labeled.
Reactions (total volume 0.05 ml) which measured complementary nucleotide incorporation contained 50 mM Tris-HCL (pH 8.0), 20 mM KCl, 5 mM dithiothreitol, 5 mM MgCl2, 2μg BSA, […] [α-^32 P] -dTTP (60 dpm/pmole), 1μg poly (A).oligo (dT) (1:1.5 mass ratio), and 0.45 μg of AMV DNA polymerase. For simultaneous quantitation of complementary and non-complementary nucleotide incorporation each reaction was modified to contain 26μM [α-^32 P]dTTP (12 dpm/pmole) and 23μM [^3 H]-dCTP (50,000 dpm/pmole). […] Metals were added directly to the reaction mixture as aqueous solutions of chloride salts. All reactions were incubated for 60 min. at 37° C. Incorporation of radioactive nucleotides into an acid-insoluble and alkali-resistant product was determined by using the precipitation-solubilization procedure as described by Battula and Loeb. All experiments were performed in triplicate and the averages were determined.
In order to determine the effect of different metals on the accuracy of DNA replication, metal cations were added as chloride salts directly to the polymerase reaction. In these experiments, poly (A).oligo (dT) was the template-primer and the simultaneous incorporation of complementary nucleotide, [α-^32 P]-dTMP, and the non-complementery nucleotide, [^3 H]-dCMP, was determined.
The effect of metal salts on the fidelity of DNA synthesis was examined by testing each of the metal salts at a minimum of seven different concentrations.

[3] = species as printed in the value; cited from earlier work
[4] = known status of the compound; cited from earlier work
[5] = tested on: several DNA polymerases; format: biochemical; conditions: preliminary results
Method: as §1

[6] = tested on: sea urchin nuclear DNA polymerase; assay: Fidelity of DNA synthesis with sea urchin nuclear DNA polymerase; format: biochemical; conditions: template poly (dA).oligo (dT)
From the text: It is one of 15 carcinogens officially listed by the U.S. government as possibly being carcinogenic in humans.

[7] = 2 mM added cation + Mg^2+ 5 mM, poly (A).oligo (dT)
[8] = 5 mM added cation + Mg^2+ 5 mM, poly (A).oligo (dT)
[9] = 10 mM added cation + Mg^2+ 5 mM, poly (A).oligo (dT)
[10] = Beryllium Chloride 1 mM, poly (A) . oligo (dT), non-complementary rGTP
[11] = Beryllium Chloride 1 mM, poly (C) . oligo (dG), non-complementary dATP
[12] = Beryllium Chloride 1 mM, poly d(A-T), non-complementary dCTP
[13] = Beryllium Chloride 2 mM, poly (A) . oligo (dT), non-complementary rGTP
[14] = Beryllium Chloride 2 mM, poly (C) . oligo (dG), non-complementary dATP
[15] = Beryllium Chloride 3 mM, poly d(A-T), non-complementary dCTP
[16] = Beryllium Chloride 4 mM, poly (C) . oligo (dG), non-complementary dATP
[17] = Beryllium Chloride 5 mM, poly (A) . oligo (dT), non-complementary rGTP
[18] = Beryllium Chloride 5 mM, poly (C) . oligo (dG), non-complementary dATP
[19] = Beryllium Chloride 5 mM, poly d(A-T), non-complementary dCTP
[20] = Beryllium Chloride 10 mM, poly (A) . oligo (dT), non-complementary rGTP

[Be+2].[Cl-].[Cl-] [BeCl2, beryllium chloride]
Thymidine monophosphate incorporation relative to that obtained with 5 mM Mg^2+ ([1]; Be^2+ in the absence of Mg^2+, 60 min): less than 0.3%
ability to substitute for Mg^2+ as added divalent cation ([1]; absence of Mg^2+, Be^2+ up to 15 mM): did not result in detectable poly (dT) synthesis
Complementary Nucleotide (pmoles dTMP) [2, 7]: 291 pmol
Non-Complementary Nucleotide (pmoles dCMP) [2, 7]: 0.372 pmol
Error Frequency ([2]; 2 mM added cation + Mg^2+ 5 mM, poly (A).oligo (dT), dCMP/dTMP): 1/782
Complementary Nucleotide (pmoles dTMP) [2, 8]: 133 pmol
Non-Complementary Nucleotide (pmoles dCMP) [2, 8]: 0.294 pmol
Error Frequency ([2]; 5 mM added cation + Mg^2+ 5 mM, poly (A).oligo (dT), dCMP/dTMP): 1/453
Complementary Nucleotide (pmoles dTMP) [2, 9]: 8.6 pmol
Non-Complementary Nucleotide (pmoles dCMP) [2, 9]: 0.114 pmol
Error Frequency ([2]; 10 mM added cation + Mg^2+ 5 mM, poly (A).oligo (dT), dCMP/dTMP): 1/75
Complementary Nucleotide Incorporation [2, 10]: 568 pmol
Error Frequency [2, 10]: 1/6104
Non-Complementary Nucleotide Incorporation [2, 10]: 0.093 pmol
Complementary Nucleotide Incorporation [2, 11]: 181 pmol
Error Frequency [2, 11]: 1/1649
Non-Complementary Nucleotide Incorporation [2, 11]: 0.110 pmol
Complementary Nucleotide Incorporation [2, 12]: 209 pmol
Error Frequency [2, 12]: 1/1306
Non-Complementary Nucleotide Incorporation [2, 12]: 0.160 pmol
Complementary Nucleotide Incorporation [2, 13]: 503 pmol
Error Frequency [2, 13]: 1/2704
Non-Complementary Nucleotide Incorporation [2, 13]: 0.186 pmol
Complementary Nucleotide Incorporation [2, 14]: 81 pmol
Error Frequency [2, 14]: 1/1025
Non-Complementary Nucleotide Incorporation [2, 14]: 0.079 pmol
Complementary Nucleotide Incorporation [2, 15]: 137 pmol
Error Frequency [2, 15]: 1/979
Non-Complementary Nucleotide Incorporation [2, 15]: 0.140 pmol
Complementary Nucleotide Incorporation [2, 16]: 57 pmol
Error Frequency [2, 16]: 1/919
Non-Complementary Nucleotide Incorporation [2, 16]: 0.062 pmol
Complementary Nucleotide Incorporation [2, 17]: 128 pmol
Error Frequency [2, 17]: 1/487
Non-Complementary Nucleotide Incorporation [2, 17]: 0.263 pmol
Complementary Nucleotide Incorporation [2, 18]: 64 pmol
Error Frequency [2, 18]: 1/831
Non-Complementary Nucleotide Incorporation [2, 18]: 0.077 pmol
Complementary Nucleotide Incorporation [2, 19]: 97 pmol
Error Frequency [2, 19]: 1/689
Non-Complementary Nucleotide Incorporation [2, 19]: 0.140 pmol
Complementary Nucleotide Incorporation [2, 20]: 52 pmol
Error Frequency [2, 20]: 1/149
Non-Complementary Nucleotide Incorporation [2, 20]: 0.349 pmol
Class ([2]; template poly (A).oligo (dT)): 1
effect on error frequency (in words) ([2]; poly (A).oligo (dT), dTMP complementary, dCMP non-complementary): error frequency increased
Metal Concentration which yielded the largest observed change in error rate ([2]; template poly (A).oligo (dT)): 10 mM
effect on the fidelity of DNA synthesis (in words) ([2]; various templates): decreases the fidelity
carcinogenicity in animals [3]: induces pulmonary carcinomas in monkey and osteogenic sarcomas in rabbits
Carcinogen or Mutagen [4]: +

[Cl-].[Cl-].[Co+2] [CoCl2]
Class ([2]; template poly (C).oligo (dG)): 1
Metal Concentration which yielded the largest observed change in error rate ([2]; template poly (C).oligo (dG)): 4 mM
effect on the fidelity of DNA synthesis (in words) ([2]; various templates): alter the fidelity
metal activator function [5]: serve as metal activators with several DNA polymerases
Carcinogen or Mutagen [4]: +

[Cl][Ni][Cl] [NiCl2]
Class ([2]; template poly (C).oligo (dG)): 1
Metal Concentration which yielded the largest observed change in error rate ([2]; template poly (C).oligo (dG)): 8 mM
effect on the fidelity of DNA synthesis (in words) ([2]; various templates): alter the fidelity
metal activator function [5]: serve as metal activators with several DNA polymerases

O=C1CCO1 [β-propiolactone]
effect on the fidelity of DNA synthesis (in words) [6]: decreases the fidelity
effect on the fidelity of DNA synthesis (in words) ([2]; template poly (dA).oligo (dT)): decreases the fidelity
carcinogenicity in animals [3]: carcinogen in mice, rats and hamsters

Source: patent US4072574A, “System for in vitro assay for mutagenicity and/or carcinogenicity of chemicals or other exogenous agents” (priority 1976, dated 1978)
